Experimental data taken from ChEMBL document CHEMBL1201862, “PubChem BioAssay data set” (2004).
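Interpolation was linear, between the two tested concentrations surrounding the appropriate level; five concentrations were tested over 48 hours in 96-well plates. GI50 = concentration required for 50% inhibition of growth.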 Calls of active or inactive are those of the source. No stated cut-off is given here; in the data, active = GI50 up to about 1.1 µM and inactive = higher. Numbered stars: 1 amine (or outer) side, 2 acyl side, 3 side chain; on linkers, the order of the positions; unused ones are H or OH. Square brackets hold non-standard residues; d marks the D form. Peptide text beside a SMILES is read from it. X55 = CC[C@H](C)[C@H](OC(=O)[C@@H](C)[C@@H](CC)N[*:1])C(=O)[*:2]; X31 = C[C@H](N[*:1])C(=O)C(C)(C)C(=O)[*:2]; NMeY = CN[C@@H](Cc1ccc(O)cc1)C(=O)O; NMeL = CN[C@@H](CC(C)C)C(=O)O; NMeV = CN[C@H](C(=O)O)C(C)C

What was measured:
Assay in all cases: inhibition of tumour cell growth, NCI panel, 48 h
SNB-19 = tested on: SNB-19
T47D = tested on: T47D
OVCAR-4 = tested on: OVCAR-4
RPMI-8226 = tested on: RPMI-8226
M14 = tested on: M14
KM12 = tested on: KM12
U-251 = tested on: U-251
SR = tested on: SR
MDA-MB-231 = tested on: MDA-MB-231
TK-10 = tested on: TK-10
MOLT-4 = tested on: MOLT-4
786-0 = tested on: 786-0
NCI-H23 = tested on: NCI-H23
SNB-75 = tested on: SNB-75
HCC 2998 = tested on: HCC 2998
ACHN = tested on: ACHN
SF-539 = tested on: SF-539
OVCAR-3 = tested on: OVCAR-3
SK-OV-3 = tested on: SK-OV-3
SK-MEL-28 = tested on: SK-MEL-28

Row | SMILES | GI50 (SNB-19) | GI50 (T47D) | GI50 (OVCAR-4) | GI50 (RPMI-8226) | GI50 (M14) | GI50 (KM12) | GI50 (U-251) | GI50 (SR) | GI50 (MDA-MB-231) | GI50 (TK-10) | GI50 (MOLT-4) | GI50 (786-0) | GI50 (NCI-H23) | GI50 (SNB-75) | GI50 (HCC 2998) | GI50 (ACHN) | GI50 (SF-539) | GI50 (OVCAR-3) | GI50 (SK-OV-3) | GI50 (SK-MEL-28)
1 | COC(=O)CN1CCN(c2cccc3c2CCCC3)CC1 | > 100 µM (inactive) | 98.2 µM (inactive) | 52.8 µM (inactive) | 25.1 µM (inactive) | 19.4 µM (inactive) | 43.9 µM (inactive) | > 100 µM (inactive) | 35.5 µM (inactive) | 71.9 µM (inactive) | 93.8 µM (inactive) | 44.5 µM (inactive) | 36.2 µM (inactive) | 13.9 µM (inactive) | 43.6 µM (inactive) | 29.6 µM (inactive) | 72.9 µM (inactive) | > 100 µM (inactive) | 19.9 µM (inactive) |  | 
2 | CC[C@H](C)[C@@H]1OC(=O)[C@@H](C)[C@@H](CC)NC(=O)[C@H](C)NC(=O)C(C)(C)C(=O)[C@H](C)NC(=O)[C@H](Cc2ccc(OC)cc2)N(C)C(=O)[C@H](C(C)C)N(C)C(=O)CNC(=O)[C@H](CC(C)C)N(C)C(=O)CNC1=O [DOLASTATIN 11] (cyclo(A[X55]G[NMeL]G[NMeV][NMeY](Me)[X31])) | 0.185 µM (active) | 0.448 µM (active) | 0.0507 µM (active) | 0.115 µM (active) | < 0.0148 µM (active) | 0.4 µM (active) | 0.0158 µM (active) | 0.0355 µM (active) | 0.0632 µM (active) | 0.0713 µM (active) | 0.543 µM (active) | 0.0304 µM (active) | 0.071 µM (active) | 0.0847 µM (active) | 0.0188 µM (active) | 0.0327 µM (active) | 0.0122 µM (active) | 0.0413 µM (active) | 0.229 µM (active) | 
3 | CC1C2CC(C(S(=O)(=O)O)C2=O)C1(C)C (centres undefined) | > 100 µM (inactive) | > 100 µM (inactive) | > 100 µM (inactive) |  | > 100 µM (inactive) | > 100 µM (inactive) | > 100 µM (inactive) | > 100 µM (inactive) | > 100 µM (inactive) | > 100 µM (inactive) | > 100 µM (inactive) | > 100 µM (inactive) | > 100 µM (inactive) | > 100 µM (inactive) | > 100 µM (inactive) | > 100 µM (inactive) | > 100 µM (inactive) | > 100 µM (inactive) | > 100 µM (inactive) | > 100 µM (inactive)
4 | Clc1ccc(NCc2nnc(CCCCCCCCc3nnc(CNc4ccc(Cl)cc4)o3)o2)cc1 | > 100 µM (inactive) | > 100 µM (inactive) | > 100 µM (inactive) | > 100 µM (inactive) | > 100 µM (inactive) | > 100 µM (inactive) | > 100 µM (inactive) | > 100 µM (inactive) | > 100 µM (inactive) | > 100 µM (inactive) | > 100 µM (inactive) | > 100 µM (inactive) | > 100 µM (inactive) | > 100 µM (inactive) | > 100 µM (inactive) | > 100 µM (inactive) |  | > 100 µM (inactive) | > 100 µM (inactive) | 
5 | COc1c2c(c3c(c1CCC(=O)O)OC(C)(C)C=C3)OC(C)(C)C=C2 | > 100 µM (inactive) | > 100 µM (inactive) | > 100 µM (inactive) | 48.4 µM (inactive) | > 100 µM (inactive) | > 100 µM (inactive) | > 100 µM (inactive) | > 100 µM (inactive) | > 100 µM (inactive) | > 100 µM (inactive) | 65.9 µM (inactive) | > 100 µM (inactive) | > 100 µM (inactive) | > 100 µM (inactive) | > 100 µM (inactive) | > 100 µM (inactive) |  | 58.7 µM (inactive) | > 100 µM (inactive) | > 100 µM (inactive)
6 | CCCCCC(=O)n1[nH]c(=O)n(-c2ccc(OC)cc2)c1=O | > 100 µM (inactive) | > 100 µM (inactive) | > 100 µM (inactive) | > 100 µM (inactive) | > 100 µM (inactive) | > 100 µM (inactive) | > 100 µM (inactive) | > 100 µM (inactive) | > 100 µM (inactive) | > 100 µM (inactive) | > 100 µM (inactive) | > 100 µM (inactive) | > 100 µM (inactive) | > 100 µM (inactive) | > 100 µM (inactive) | > 100 µM (inactive) |  | > 100 µM (inactive) | > 100 µM (inactive) | > 100 µM (inactive)
7 | O=C(O)CSC1=NC(=O)C2(NN1)c1ccccc1-c1ccccc12 | > 10 µM (inactive) | > 10 µM (inactive) | > 10 µM (inactive) | > 10 µM (inactive) | > 10 µM (inactive) | > 10 µM (inactive) |  | > 10 µM (inactive) | > 10 µM (inactive) | > 10 µM (inactive) | > 10 µM (inactive) | > 10 µM (inactive) | > 10 µM (inactive) | > 10 µM (inactive) | > 10 µM (inactive) | > 10 µM (inactive) | > 10 µM (inactive) |  | > 10 µM (inactive) | > 10 µM (inactive)
8 | C=C[C@H]1CN2CCc3c([nH]c4c([C@H]5CCCN5C)c(O)ccc34)[C@@H]2C[C@@H]1C[C@H]1c2[nH]c3ccccc3c2CCN1C [STRYCHNOPENTAMINE] | 1.95 µM (inactive) | 1.8 µM (inactive) | 1.74 µM (inactive) | 0.653 µM (active) | 1.47 µM (inactive) | 1.36 µM (inactive) | 1.43 µM (inactive) | 0.425 µM (active) | 1.81 µM (inactive) | 1.83 µM (inactive) |  | 1.43 µM (inactive) | 1.85 µM (inactive) | 1.14 µM (inactive) | 0.388 µM (active) | 1.78 µM (inactive) |  | 1.58 µM (inactive) | 1.77 µM (inactive) | 1.76 µM (inactive)
9 | COc1ccc(NC(=S)Nc2cc(C)ccn2)cc1 | > 100 µM (inactive) | > 100 µM (inactive) | > 100 µM (inactive) | > 100 µM (inactive) |  | > 100 µM (inactive) | > 100 µM (inactive) | > 100 µM (inactive) | > 100 µM (inactive) | > 100 µM (inactive) | > 100 µM (inactive) | > 100 µM (inactive) | > 100 µM (inactive) | > 100 µM (inactive) | > 100 µM (inactive) | > 100 µM (inactive) | > 100 µM (inactive) |  |  | > 100 µM (inactive)
10 | NC1=C(N2CCOCC2)C(=O)NC2=N/C(=C\c3ccccc3O)C(=O)N21 | > 100 µM (inactive) | 51.2 µM (inactive) | 13.5 µM (inactive) | 20.5 µM (inactive) | > 100 µM (inactive) | > 100 µM (inactive) | > 100 µM (inactive) | 35.6 µM (inactive) | > 100 µM (inactive) | > 100 µM (inactive) | 31.6 µM (inactive) | > 100 µM (inactive) | > 100 µM (inactive) | > 100 µM (inactive) | 95.7 µM (inactive) | > 100 µM (inactive) | > 100 µM (inactive) |  | > 100 µM (inactive) | > 100 µM (inactive)
11 | CC(C)CCOC(=O)NC(Nc1ccc(F)cc1)(C(F)(F)F)C(F)(F)F | 62.2 µM (inactive) | 6.22 µM (inactive) |  | 22.1 µM (inactive) | 6.62 µM (inactive) | 5.98 µM (inactive) | 27.3 µM (inactive) | 0.679 µM (active) | 7.91 µM (inactive) | 29.7 µM (inactive) | 19.1 µM (inactive) | > 100 µM (inactive) | 33.4 µM (inactive) | > 100 µM (inactive) | 21.7 µM (inactive) | 1.66 µM (inactive) | 16.1 µM (inactive) | 37.4 µM (inactive) | 63 µM (inactive) | > 100 µM (inactive)
12 | Nc1ccccc1CCN1CCN(CCCc2ccccc2)CC1 | > 100 µM (inactive) | 20.8 µM (inactive) | 65.8 µM (inactive) | 27.8 µM (inactive) | 17.3 µM (inactive) | 52.1 µM (inactive) | > 100 µM (inactive) | 25.7 µM (inactive) | 61.1 µM (inactive) | 91.2 µM (inactive) | 53.3 µM (inactive) | 31.7 µM (inactive) | > 100 µM (inactive) |  | 19.4 µM (inactive) | > 100 µM (inactive) | 39.2 µM (inactive) | > 100 µM (inactive) | > 100 µM (inactive) | 97.7 µM (inactive)
13 | CC1=NN(c2ccccc2Cl)C2(C1)C(Cl)C(=O)N2c1nc2ccccc2s1 (centres undefined) | 52.7 µM (inactive) | 44.3 µM (inactive) | > 100 µM (inactive) | 21.7 µM (inactive) | 52.4 µM (inactive) | 55.6 µM (inactive) | 28.6 µM (inactive) | 21.1 µM (inactive) | 46.6 µM (inactive) | > 100 µM (inactive) | 30 µM (inactive) | 31.8 µM (inactive) | 48.4 µM (inactive) | 20.8 µM (inactive) | > 100 µM (inactive) | 94.8 µM (inactive) |  | 17.3 µM (inactive) | 24.7 µM (inactive) | 
14 | CCOC(=O)c1c(SC(=O)c2ccc(Cl)cc2)n(-c2ccccc2)c(=S)n(-c2ccccc2)c1=O | > 100 µM (inactive) | > 100 µM (inactive) | > 100 µM (inactive) |  | > 100 µM (inactive) | > 100 µM (inactive) | > 100 µM (inactive) | > 100 µM (inactive) | > 100 µM (inactive) | > 100 µM (inactive) | > 100 µM (inactive) | > 100 µM (inactive) | > 100 µM (inactive) | > 100 µM (inactive) | > 100 µM (inactive) | > 100 µM (inactive) | > 100 µM (inactive) | > 100 µM (inactive) | > 100 µM (inactive) | > 100 µM (inactive)
